Results: patent publication US6835842B2, “3-nitroisoxazoles and their use in the protection of materials” (Bayer Aktiengesellschaft, priority 2000, dated 2004)
≈ marks a conversion by molar mass, not a printed value.

Key:
Assay type in all cases: cell-based
Chaetomium globusum = experiment: Use Example B: minimum inhibitory concentration against fungi on malt extract agar; conditions: 2 weeks at 28° C., 60-70% relative atmospheric humidity
Protocol: (§1) The MIC is determined after 2 weeks of storage at 28° C. and 60-70% relative atmospheric humidity.

Aspergillus niger = experiment: as above; conditions: 2 weeks at 28° C., 60-70% relative atmospheric humidity
Protocol: as §1

Penicillium brevicaule = experiment: as above; conditions: 2 weeks at 28° C., 60-70% relative atmospheric humidity
Protocol: as §1

Bacillus subtilis = experiment: Use Example A: minimum inhibitory concentration against bacteria on Landy agar; conditions: 3 days at 28° C., 60-70% relative atmospheric humidity
Protocol: (§2) The MIC is determined after 3 days of storage at 28° C. and 60-70% relative atmospheric humidity.

Pseudomonas aeroginosa = experiment: as above; conditions: 3 days at 28° C., 60-70% relative atmospheric humidity
Protocol: as §2

| MIC (Chaetomium globusum; Chaetomium, 336 h) [µg/mL] | MIC (Aspergillus niger; Aspergillus niger, 336 h) [µg/mL] | MIC (Penicillium brevicaule; Penicillium, 336 h) [µg/mL] | MIC (Bacillus subtilis; Bacillus subtilis, 72 h) [µg/mL] | MIC (Pseudomonas aeroginosa; Pseudomonas, 72 h) [µg/mL] | Compound | Minimum inhibitory concentration Chaetomium globusum (Chaetomium globusum) [ppm] | Minimum inhibitory concentration Aspergillus niger (Aspergillus niger) [ppm] | Minimum inhibitory concentration Penicillium brevicaule (Penicillium brevicaule) [ppm] | Minimum inhibitory concentration Bacillus subtilis (Bacillus subtilis) [ppm] | Minimum inhibitory concentration Pseudomonas aeroginosa (Pseudomonas aeroginosa) [ppm] |
| --- | --- | --- | --- | --- | --- | --- | --- | --- | --- | --- |
| 200 (≈ 1750 µM) | 100 (≈ 877 µM) | 100 (≈ 877 µM) | < 40 | 100 (≈ 877 µM) | O=[N+]([O-])c1ccon1 [Example 1, 3-Nitroisoxazole] | – | – | – | – | – |
| – | – | – | – | – | O=[N+]([O-])c1cc(-c2ccccc2)on1 [Example 2] | 200 | 400 | 200 | <40 | >400 |
| – | – | – | – | – | Cc1cc([N+](=O)[O-])no1 [Example 3] | 200 | 200 | 200 | <40 | 200 |
| – | – | – | – | – | CCCCc1cc([N+](=O)[O-])no1 [Example 4] | 400 | >400 | 400 | <40 | 200 |
| – | – | – | – | – | CCOc1ccc(-c2cc([N+](=O)[O-])no2)cc1Cl [Example 5] | 100 | 400 | 200 | <40 | >400 |
